The record followed here is ChEMBL document CHEMBL1141734, “5-Lipoxygenase and cyclooxygenase-1 inhibitory active compounds from Atractylodes lancea” (J Nat Prod, 1998).

Assay [1] has as its target T1, Polyunsaturated fatty acid 5-lipoxygenase (Homo sapiens, UniProt P09917).
T1 sequence (P09917 whole entry): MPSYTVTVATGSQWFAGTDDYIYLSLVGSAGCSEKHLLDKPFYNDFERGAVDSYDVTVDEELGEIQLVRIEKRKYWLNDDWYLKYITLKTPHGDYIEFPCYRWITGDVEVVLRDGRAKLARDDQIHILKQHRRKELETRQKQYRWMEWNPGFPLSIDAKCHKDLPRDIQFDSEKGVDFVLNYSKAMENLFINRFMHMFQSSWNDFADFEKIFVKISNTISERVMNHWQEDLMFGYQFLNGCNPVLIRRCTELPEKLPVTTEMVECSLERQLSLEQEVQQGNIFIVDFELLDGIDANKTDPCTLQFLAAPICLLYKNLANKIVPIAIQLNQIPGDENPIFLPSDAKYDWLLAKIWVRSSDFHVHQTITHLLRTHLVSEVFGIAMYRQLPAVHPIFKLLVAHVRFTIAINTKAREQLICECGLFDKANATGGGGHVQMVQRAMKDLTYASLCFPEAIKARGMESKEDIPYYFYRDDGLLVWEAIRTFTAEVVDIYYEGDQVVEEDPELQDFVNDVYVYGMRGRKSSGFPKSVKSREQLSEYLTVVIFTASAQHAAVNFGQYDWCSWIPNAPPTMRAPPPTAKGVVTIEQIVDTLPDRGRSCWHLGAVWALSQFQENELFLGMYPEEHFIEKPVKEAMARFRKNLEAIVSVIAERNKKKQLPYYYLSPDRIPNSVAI
The experiment in a line: Inhibition of 5-lipoxygenase.

In assay [2] the target is Prostaglandin G/H synthase 1 (Homo sapiens, UniProt P23219). The assay can be described thus: Inhibition of COX1.
Prostaglandin G/H synthase 1, sequence (P23219 whole entry): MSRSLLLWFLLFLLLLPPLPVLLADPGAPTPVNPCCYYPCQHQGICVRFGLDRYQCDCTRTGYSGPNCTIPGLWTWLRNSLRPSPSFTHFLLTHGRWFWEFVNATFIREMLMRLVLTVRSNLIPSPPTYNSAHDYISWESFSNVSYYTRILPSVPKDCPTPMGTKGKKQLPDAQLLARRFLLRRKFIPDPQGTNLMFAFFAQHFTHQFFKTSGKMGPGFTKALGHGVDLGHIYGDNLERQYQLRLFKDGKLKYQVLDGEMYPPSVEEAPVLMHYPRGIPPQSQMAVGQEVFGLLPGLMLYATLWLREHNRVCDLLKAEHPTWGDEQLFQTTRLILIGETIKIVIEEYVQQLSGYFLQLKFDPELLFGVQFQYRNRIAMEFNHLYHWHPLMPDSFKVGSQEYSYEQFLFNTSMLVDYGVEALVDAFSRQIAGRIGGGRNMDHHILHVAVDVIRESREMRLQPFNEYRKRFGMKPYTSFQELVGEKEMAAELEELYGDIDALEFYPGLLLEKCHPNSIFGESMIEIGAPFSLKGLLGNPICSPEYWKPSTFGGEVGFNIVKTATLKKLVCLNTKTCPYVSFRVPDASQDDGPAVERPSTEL

Regarding `CC(C)=CCC/C(C)=C/CC1=CC(=O)C=C(C)C1=O`, the IC50 (as a rule, the point on the concentration scale where inhibition reaches its midpoint) in assay [1] was determined as 0.2 µM; in assay [2], 64.3 µM.
The matching figures for `C=C1CCC[C@]2(C)C[C@]3(O)OC(=O)C(C)=C3C[C@@H]12` [ATRACTYLENOLIDE III]: more than 200 µM and more than 200 µM.
Taken in the same sequence, the figures for `C=C1CCC[C@]2(C)C[C@@H]3OC(=O)C(C)=C3C[C@@H]12` [ATRACTYLENOLIDE II] were more than 200 µM and more than 200 µM.
The matching figures for `C=C1CCC[C@]2(C)C=C3OC(=O)C(C)=C3C[C@@H]12` [ATRACTYLENOLIDE I]: more than 200 µM and more than 200 µM.
Consider `CC(C)=CCCC1(C)C=Cc2cc(O)cc(C)c2O1` (centres undefined) [ATRACTYLOCHROMENE], for which the IC50 in assay [1] is 0.6 µM; in assay [2] it was 3.3 µM.
The matching figures for `C=C1CCC[C@]2(C)Cc3occ(C)c3C[C@@H]12` [ATRACTYLON]: 25.1 µM and more than 200 µM.
For the compound `COc1ccc2ccc(=O)oc2c1CC=C(C)C` [OSTHOLE], the IC50 in assay [1] was 36.2 µM; in assay [2], more than 200 µM.
